Experimental findings from US20080107751A1, “Antimicrobial Wax Composition for Wax Therapy” (priority 2004, published 2008) are described below.

The test system of one assay is Staphylococcus aurea. The experiment in a line: Growth and survival of Staphylococcus in molten wax composition. The assay is classed as cell-based, Staphylococcus aureus. As to the method: (§1) In its simplest form, the wax composition according to the present invention comprises a wax component and an antimicrobial component. The preferred wax is conventional, physio-therapy-grade paraffin wax that is solid at room temperature and has a melting point around 120° F. The preferred antimicrobial agent or component is triclosan, which is a phenolic, broad-spectrum antimicrobial that is generally regarded as safe for use on human skin, and even for ingestion by humans in small amounts. It is available from several sources, including Ciba Specialty Chemicals Corporation, 4090 Premier Drive, High Point, N.C. 27265. […] These bacteria were selected for testing as common human pathogens that are commonly found on the hands. Additionally, these pathogens also model the “survivability” of other pathogens that could be found in the melted wax.
(§2) This is the preferred concentration of the triclosan antimicrobial in the molten wax composition according to the present invention. As disclosed in connection with the below examples, this is about 0.18-0.2% by weight of the total composition.

Assay [1] deals with Salmonella (both enteritidis and typhimurium strains). As to the kind of experiment: Growth and survival of Salmonella in molten wax composition. The assay is classed as cell-based. As to the method:
as §1, §2

For the next assay, the system named is E. Coli 0157. The experiment in a line: Growth and survival of E. Coli 0157 in molten wax composition. The assay is classed as cell-based. As to the method: as §1, §2
The test system of the next assay is Streptococcus. The experiment in a line: Growth and survival of Streptococcus in molten wax composition. The assay is classed as cell-based. The note with it: triclosan 500 μg/ml up to 1000 μg/ml in molten wax.
Source text: as §2

The test system of another assay is human pathogens. The experiment in a line: Growth of pathogens in molten wax composition containing triclosan. The assay is classed as cell-based. As to the method:
as §1, §2
The foregoing examples vary primarily in their fragrance and coloration. They are by way of example only and not intended to be by way of limitation. Variation of other components is regarded as within the invention. […]

The mark [2] stands for this setting: molten wax, versus absence of triclosan.
The mark [3] stands for this setting: triclosan 500 μg/ml up to 1000 μg/ml in molten wax.

Regarding `Oc1cc(Cl)ccc1Oc1ccc(Cl)cc1Cl` [triclosan], the “time of survivability in wax composition” value (with Staphylococcus aurea (molten wax); in assay [1] (molten wax); in the assay on E. Coli 0157 (molten wax)) was “decrease” throughout. Also, the “growth of bacteria in wax composition” value (with Staphylococcus aurea (setting [2]); in assay [1] (setting [2]); in the assay with E. Coli 0157 (setting [2])) was “inhibit growth” throughout. Moreover, the growth and survival entry with Staphylococcus aurea (setting [3]) is “permitted growth and survival”; in assay [1] (triclosan 500 μg/ml up to 1000 μg/ml in molten wax, Salmonella apparently eliminated by heat alone), “not”; in the assay on E. Coli 0157 (setting [3]) it was “permitted growth and survival”; in the assay with Streptococcus it was “permitted growth and survival”. Moreover, in the assay on human pathogens (molten wax composition, about 0.18-0.2% by weight), the “concentration that inhibits the growth of both pathogens” value was determined as 2000 µg/mL. For the same compound, in the assay on human pathogens (wax maintained at 52.5° C. or 126.5° F., concentrations as low as), the “concentration found to inhibit growth of pathogens in wax” value was at least 500 µg/mL.
